Measurements taken from patent US8461181B2, “Fused heterocyclic compound and use thereof” (Sumitomo Chemical Company, Ltd., priority 2009, dated 2013).

tested on: Aphis gossypii; assay: Test Example 3: root immersion of cucumber seedling, Aphis gossypii; format: in vivo; settings: 168 h, cucumber root part immersed in 5 ml, inoculated one day after treatment, checked seven days after
Description: The formulations of the present active compounds (18), (19), (21), (22), (24), (25), (28), (31) to (34), (46), (47), (52), (53), (101) to (104), (106) to (108), (112) to (114), (117), (118), (122), (123), (126), (128), (129), (133), (134), (138), (144), (153) to (155) and (157) obtained by Formulation Example 5 were diluted with water so that the active ingredient concentration was 500 ppm, to prepare diluted solutions for test. A root part of a cucumber seedling (first true leaf spreading stage) from which soil had been washed off was immersed in 5 ml of this diluted solution, and one day after treatment, the cucumber leaf surface was inoculated with 30 Aphis gossypii (whole stage). Further seven days after, the number of insect of living Aphis gossypii […] on the leaves of this cucumber was checked, and the control value was calculated according to the following formula. Control value (%)={1-(Cb×Tai)/(Cai×Tb)}×100 Letters in the formula represent the following meanings. Cb: the number of insect before treatment on non-treated district Cai: the number of insect in observation on non-treated district Tb: the number of insect before treatment on treated district Tai: the number of insect in observation on treated district

| Structure (SMILES) | pest or weed control at 500 ppm [%] |
| --- | --- |
| CC[S+]([O-])c1cnccc1-c1nc2cc(C(F)(F)F)ccc2n1C (centres unmarked) [present active compound 21, 2-(3-ethanesulfinylpyridin-4-yl)-1-methyl-5-trifluoromethyl-1H-benzimidazole] | ≥ 90 |
| Cn1c(-c2cc[n+]([O-])cc2)nc2cc(C(F)(F)F)ccc21 [present active compound 24, 1-methyl-2-(1-oxypyridin-4-yl)-5-trifluoromethyl-1H-benzimidazole] | ≥ 90 |
| Fc1cnccc1-c1nc2cc(C(F)(F)F)ccc2n1C1CC1 [present active compound 28, 1-cyclopropyl-2-(3-fluoropyridin-4-yl)-5-trifluoromethyl-1H-benzimidazole] | ≥ 90 |
| CC[S+]([O-])c1cnccc1-c1nc2cc(C(F)(F)F)cnc2n1C (centres unmarked) [present active compound 52, 2-(3-ethanesulfinylpyridin-4-yl)-3-methyl-6-trifluoromethyl-3H-imidazo[4,5-b]pyridine] | ≥ 90 |
| Cn1c(-c2ccncc2SC(F)(F)F)nc2cc(C(F)(F)F)ccc21 [present active compound 122] | ≥ 90 |
| Cn1c(-c2ccncc2SCC(F)F)nc2cc(C(F)(F)F)cnc21 [present active compound 123] | ≥ 90 |
| Cn1c(-c2ccncc2SC(F)(F)C(F)F)nc2cc(C(F)(F)F)cnc21 [present active compound 126] | ≥ 90 |
| Cn1c(-c2ccncc2SCCF)nc2cc(C(F)(F)F)ccc21 [present active compound 129] | ≥ 90 |
| C=CCSc1cnccc1-c1nc2cc(C(F)(F)F)cnc2n1C [present active compound 133] | ≥ 90 |
| C=CCSc1cnccc1-c1nc2cc(C(F)(F)F)ccc2n1C [present active compound 134] | ≥ 90 |
| CCNC(=O)c1cnccc1-c1nc2cc(C(F)(F)F)cnc2n1C [present active compound 138] | ≥ 90 |
| CCOC(=O)c1cnccc1-c1nc2cc(C(F)(F)F)cnc2n1C [present active compound 144] | ≥ 90 |
| COC(=O)CSc1cnccc1-c1nc2cc(C(F)(F)F)cnc2n1C [present active compound 157] | ≥ 90 |

tested on: Nilaparvata lugens; assay: Test Example 8: spray on rice seedling, 20 first instar larvae of Nilaparvata lugens; format: in vivo; settings: 144 h, 10 ml sprayed on rice seedling, 20 first instar larvae released, 6 days at 25° C.
Description: The formulations of the present active compounds (6), (7), (18), (21), (24), (25), (28) to (30), (32), (46), (52), (101) to (103), (105) to (107), (111), (112), (115), (119) to (124), (126) to (130), (133) to (135), (139), (142), (144) to (146), (149) to (151), (153), (154), (216) and (217) obtained by Formulation Example 5 were diluted with water so that the active ingredient concentration was 500 ppm, to prepare spray solutions for test. Separately, on a rice seedling (2 weeks after sowing, second leaf spreading stage) planted on a plastic cup, the drug solutions for test prepared as described above were sprayed each in an amount of 10 ml. After drying of the drug solution sprayed on rice, 20 first instar larvae of Nilaparvata lugens were released, and kept in a greenhouse of 25° C. for 6 days. Thereafter, the number of Nilaparvata lugens […] on rice was checked, and the control value was calculated according to the following formula. Control value (%)={1-(Cb×Tai)/(Cai×Tb)}×100 Letters in the formula represent the following meanings. Cb: the number of insect before treatment on non-treated district Cai: the number of insect in observation on non-treated district Tb: the number of insect before treatment on treated district Tai: the number of insect in observation on treated district

| Structure (SMILES) | pest or weed control at 500 ppm [%] |
| --- | --- |
| CC[S+]([O-])c1cnccc1-c1nc2cc(C(F)(F)F)ccc2n1C (centres unmarked) [present active compound 21, 2-(3-ethanesulfinylpyridin-4-yl)-1-methyl-5-trifluoromethyl-1H-benzimidazole] | ≥ 90 |
| Cn1c(-c2cc[n+]([O-])cc2)nc2cc(C(F)(F)F)ccc21 [present active compound 24, 1-methyl-2-(1-oxypyridin-4-yl)-5-trifluoromethyl-1H-benzimidazole] | ≥ 90 |
| CCSc1cnccc1-c1nc2cc(C(F)(F)F)ccc2n1C1CC1 [present active compound 32, 1-cyclopropyl-2-(3-ethylthiopyridin-4-yl)-5-trifluoromethyl-1H-benzimidazole] | ≥ 90 |
| CC[S+]([O-])c1cnccc1-c1nc2cc(C(F)(F)F)cnc2n1C (centres unmarked) [present active compound 52, 2-(3-ethanesulfinylpyridin-4-yl)-3-methyl-6-trifluoromethyl-3H-imidazo[4,5-b]pyridine] | ≥ 90 |
| Cn1c(-c2ccncc2OCC(C)(C)C)nc2cc(C(F)(F)F)cnc21 [present active compound 111] | ≥ 90 |
| CC(C)COc1cnccc1-c1nc2cc(C(F)(F)F)cnc2n1C [present active compound 112] | ≥ 90 |
| Cn1c(-c2ccncc2S)nc2cc(C(F)(F)F)cnc21 [present active compound 115] | ≥ 90 |
| Cn1c(-c2ccncc2C(=O)NCC#N)nc2cc(C(F)(F)F)cnc21 [present active compound 142] | ≥ 90 |
| Cn1c(-c2ccncc2SCC#N)nc2cc(C(F)(F)F)cnc21 [present active compound 153] | ≥ 90 |
| Cn1c(-c2ccncc2SCC#N)nc2cc(C(F)(F)F)ccc21 [present active compound 154] | ≥ 90 |
